BindingDB's records for patent US8476306 (The Medicines, 2013)

target: Urokinase-type plasminogen activator (Homo sapiens, UniProt P00749); test: Enzyme Assay; conditions: 24 °C
Text: Inhibition constant of the compound against Plasminogen activator urokinase

Compound | Ki [nM]
N=C(N)c1ccc(CNC(=O)CNC(=O)[C@@H](CO)NS(=O)(=O)Cc2ccc(CN)cc2)cc1 [US8476306, 6.11] | 120
N=C(N)c1ccc(CNC(=O)CNC(=O)[C@@H](CO)NS(=O)(=O)Cc2ccncc2)cc1 [US8476306, 6.24] | 100
N=C(N)c1ccc(CNC(=O)[C@H](CCCCN)NC(=O)[C@@H](CO)NS(=O)(=O)Cc2ccccc2)cc1 [US8476306, 8.1] | 24
N=C(N)c1ccc(CNC(=O)[C@H](CCCN=C(N)N)NC(=O)[C@@H](CO)NS(=O)(=O)Cc2ccccc2)cc1 [US8476306, 8.2] | 8.9
